From patent publication US7041685B2, “Substituted 3-aryl-5-aryl-[1,2,4]-oxadiazoles and analogs as activators of caspases and inducers of apoptosis and the use thereof” (Cytovia, Inc., priority 2001, dated 2006)
One block for each compound: values may come before it.

Legend:
[1] = test system: T-47D; experiment: Caspase cascade activation assay (fluorogenic N-(Ac-DEVD)-N'-ethoxycarbonyl-R110 substrate) in T-47D cells; format: cell-based, Human; settings: 48 h incubation; for Caspase Activity Ratio: ratio of net RFU of compound to control; for EC50: Homo sapiens, T47D, read-out: Caspase Potency EC50
Protocol: Human breast cancer cell lines T-47D and ZR-75-1 were grown according to media component mixtures designated by American Type Culture Collection +10% FCS (Invitrogen Corporation), in a 5% CO2—95% humidity incubator at 37° C. T-47D and ZR-75-1 cells were maintained at a cell density between 50 and 80% confluency at a cell density of 0.1 to 0.6×10^6 cells/mL. Cells were harvested at 600×g and resuspended at 0.65×10^6 cells/mL into appropriate media +10% FCS. An aliquot of […] of cells was added to a well of a […] microtiter plate containing 2.5 μl of a 10% DMSO in RPMI-1640 media solution containing 0.16 to 100 μM of 5-(3-chloro-thiophen-2-yl)-3-(4-trifluoromethyl-phenyl)-[1,2,4]-oxadiazole or other test compound (0.016 to 10 μM final). An aliquot of 22.5 μL of cells was added to a well of a […] microtiter plate containing 2.5 μl of a 10% DMSO in RPMI-1640 media solution without test compound as the control sample. The samples were mixed by agitation and then incubated at 37° C. for 48 h in a 5% CO2—95% humidity incubator. After incubation, the samples were removed from the incubator and 25 μL of a solution containing 14 μM of N-(Ac-DEVD)-N′-ethoxycarbonyl-R110 (SEQ ID No.:1) fluorogenic substrate (Maxim, Inc.; WO99/18856), 20% sucrose (Sigma), 20 mM DTT (Sigma), 200 mM NaCl (Sigma), 40 mM Na PIPES buffer pH 7.2 (Sigma), and 500 μg/mL lysolecithin (Calbiochem) was added. The samples were mixed by agitation and incubated at room temperature. Using a fluorescent plate reader (Model SpectraMax Gemini, Molecular Devices), an initial reading (T=0) was made approximately 1-2 min after addition of the substrate solution, employing excitation at 485 nm and emission at 530 nm, to determine the background fluorescence of the control sample. After the 3 h incubation, the samples were read for fluorescence as above (T=3 h).
The Relative Fluorescence Unit values (RFU) were used to calculate the sample readings as follows: RFU(T=3 h)−Control RFU(T=0)=Net RFU(T=3 h)
The activity of caspase cascade activation was determined by the ratio of the net RFU value for 5-(3-chloro-thiophen-2-yl)-3-(4-trifluoromethyl-phenyl)-[1,2,4]-oxadiazole or other test compound to that of control samples. The EC50 (nM) was determined by a sigmoidal dose-response calculation (Prism 2.0, GraphPad Software Inc.).

[2] = test system: T-47D; experiment: Cell proliferation assay (GI50), T-47D; format: cell-based; settings: Homo sapiens, T47D, 48 h
Protocol: (§1) T-47D and SKBr-3 cells were grown and harvested as in Example 121. An aliquot of 90 μL of cells (2. 2×10^4 cells/mL) was added to a well of a 96-well microtiter plate containing 10 μl of a 10% DMSO in RPMI-1640 media solution containing 1 nM to 100 μM of 5-(3-chloro-thiophen-2-yl)-3-(4-trifluoromethyl-phenyl)-[1,2,4]-oxadiazole (0.1 nM to 10 μM final). An aliquot of 90 μL of cells was added to a well of a 96-well microtiter plate containing 10 μL of a 10% DMSO in RPMI-1640 media solution without compound as the control sample for maximal cell proliferation (AMax). The samples were mixed by agitation and then incubated at 37° C. for 48 h in a 5% CO2—95% humidity incubator. After incubation, the samples were removed from the incubator and 20 μL of CellTiter 96 AQUEOUS One Solution Cell Proliferation™ reagent (Promega) was added. The samples were mixed by agitation and incubated at 37° C. for 2-4 h in a 5% CO2—95% humidity incubator. Using an absorbance plate reader (Model 1420 Wallac Instruments), an initial reading (T=0) was made approximately 1-2 min after addition of the solution, employing absorbance at 490 nm. This determines the possible background absorbance of the test compounds. No absorbance for 5-(3-chloro-thiophen-2-yl)-3-(4-trifluoromethyl-phenyl)-[1,2,4]-oxadiazole was found at 490 nm. After the 2-4 h incubation, the samples were read for absorbance as above (ATest). […]

[3] = test system: ZR-75-1; experiment: Cell proliferation assay (GI50), ZR-75-1; format: cell-based; settings: Homo sapiens, ZR75-1, 48 h
Protocol: [The source words this procedure for another cell line and reports this cell line under the same test.] as §1

[4] = test system: MX-1; experiment: Cell proliferation assay (GI50), MX-1; format: cell-based; settings: Homo sapiens, MX1; MX-1, breast cancer cell line, 48 h
Protocol: [The source words this procedure for another cell line and reports this cell line under the same test.] as §1

[5] = test system: SK-Br-3; experiment: Cell proliferation assay (GI50), SK-Br-3; format: cell-based; settings: Homo sapiens; SK-Br-3, breast cancer cell line, 48 h
Protocol: as §1

[6] = test system: PC-3; experiment: Cell proliferation assay (GI50), PC-3; format: cell-based; settings: Homo sapiens; PC-3, non-breast cancer cell line, 48 h
Protocol: [The source words this procedure for another cell line and reports this cell line under the same test.] as §1

[7] = test system: Panc-1; experiment: Cell proliferation assay (GI50), Panc-1; format: cell-based; settings: Homo sapiens; Panc-1, non-breast cancer cell line, 48 h
Protocol: [The source words this procedure for another cell line and reports this cell line under the same test.] as §1

[8] = test system: SW-620; experiment: Cell proliferation assay (GI50), SW-620; format: cell-based; settings: Homo sapiens; SW-620, non-breast cancer cell line, 48 h
[9] = test system: NCI-H23; experiment: Cell proliferation assay (GI50), NCI-H23; format: cell-based; settings: Homo sapiens; NCI-H23, non-breast cancer cell line, 48 h
Protocol: [The source words this procedure for another cell line and reports this cell line under the same test.] as §1

[10] = test system: K562; experiment: Cell proliferation assay (GI50), K562; format: cell-based; settings: Homo sapiens; K562, non-breast cancer cell line, 48 h
Protocol: [The source words this procedure for another cell line and reports this cell line under the same test.] as §1

[11] = test system: DLD-1; experiment: Cell proliferation assay (GI50), DLD-1; format: cell-based; settings: Homo sapiens; DLD-1, colon cancer cell line, 48 h
[12] = test system: MX-1 cells; experiment: Clonogenic survival of MX-1 solid tumor cells; format: cell-based; settings: Homo sapiens, MX1, 48 h treatment, colonies counted after 7-10 days, read-out: IC50 of colony forming ability (clonogenic survival)
Protocol: MX-1 cells were grown according to the conditions recommended by American Type Culture Collection. In a well of a 96 well plate, 30,000 cells were seeded and treated with compound at the indicated concentrations for 48 h in a 5% CO2—95% humidity incubator at 37° C. Control wells were treated with the same amount of solvent (DMSO) as the compound samples. After the indicated treatment time, the supernatant was removed to a sterile culture tube and the wells washed with phosphate buffered saline, and the adherent cells trypsinized for 5 min. The trypsinzed cells were added to the culture supernatant, cells were collected (1,200 rpm, 10 min), washed with phosphate buffered saline, and resupended in fresh media. The cells were counted for trypan blue negative cells, and the cells diluted with fresh media to 1,000 cells/mL. To a well of a 24-well plate, 0.1 mL of the cell suspension was added along with 1 mL of fresh media (cell suspensions were passed through a 22G needle several times just before plating to form single cell suspensions). Plates are incubated in a 5% CO2—95% humidity incubator at 37° C. for 7-10 days. Colonies are counted when the sizes reached greater than 50 cells per colony. […] Colonies are rinsed with water and the colonies counted and the fraction surviving expressed as the percentage of the number of control colonies.

Compound: Clc1ccc(-c2noc(-c3sccc3Cl)n2)cc1 [Example 1, 3-(4-Chloro-phenyl)-5-(3-chloro-thiophen-2-yl)-[1,2,4]-oxadiazole]
Caspase Activity Ratio [1]: 16.9
EC50 [1]: 3610 nM
GI50 [2]: 250 nM
GI50 [3]: 200 nM
GI50 [4]: 300 nM
GI50 [5]: 20 nM
GI50 [6]: > 10000 nM
GI50 [7]: > 10000 nM
GI50 [8]: > 10000 nM
GI50 [9]: > 10000 nM
GI50 [10]: > 10000 nM
GI50 [11]: 35 nM

Compound: FC(F)(F)c1ccc(-c2noc(-c3sccc3Cl)n2)cc1 [Example 4, 5-(3-Chloro-thiophen-2-yl)-3-(4-trifluoromethyl-phenyl)-[1,2,4]-oxadiazole]
Caspase Activity Ratio [1]: 4.2
EC50 [1]: 5350 nM
IC50 [12]: ~1050 nM

Compound: Fc1ccc(-c2noc(-c3sccc3Cl)n2)cc1 [Example 5, 5-(3-Chloro-thiophen-2-yl)-3-(4-fluoro-phenyl)-[1,2,4]-oxadiazole]
Caspase Activity Ratio [1]: 19.7
EC50 [1]: 2140 nM
GI50 [2]: 300 nM
GI50 [3]: 400 nM
GI50 [4]: 400 nM
GI50 [5]: 20 nM
GI50 [6]: > 10000 nM
GI50 [7]: > 10000 nM
GI50 [8]: > 10000 nM
GI50 [9]: > 10000 nM
GI50 [10]: > 10000 nM
GI50 [11]: 40 nM

Further lines, with some results ahead:

EC50 [1]: 5000 nM
Compound: O=[N+]([O-])c1ccc(-c2noc(-c3sccc3Cl)n2)cc1 [Example 6, 5-(3-Chloro-thiophen-2-yl)-3-(4-nitro-phenyl)-[1,2,4]-oxadiazole]
Caspase Activity Ratio [1]: 3.8

EC50 [1]: 865 nM
Compound: Clc1ccc(-c2noc(-c3sccc3Cl)n2)c(Cl)c1 [Example 7, 5-(3-Chloro-thiophen-2-yl)-3-(2,4-dichloro-phenyl)-[1,2,4]-oxadiazole]
Caspase Activity Ratio [1]: 4.1
